From the Kinase Knowledgebase extract (Sharma et al. 2016)

Key:
EGFR [1] = target: EGFR (UniProt P00533)
EGFR [2] = target: EGFR (UniProt P00533); remark: listed apart in the source

Sequence of EGFR (P00533 whole entry, looked up): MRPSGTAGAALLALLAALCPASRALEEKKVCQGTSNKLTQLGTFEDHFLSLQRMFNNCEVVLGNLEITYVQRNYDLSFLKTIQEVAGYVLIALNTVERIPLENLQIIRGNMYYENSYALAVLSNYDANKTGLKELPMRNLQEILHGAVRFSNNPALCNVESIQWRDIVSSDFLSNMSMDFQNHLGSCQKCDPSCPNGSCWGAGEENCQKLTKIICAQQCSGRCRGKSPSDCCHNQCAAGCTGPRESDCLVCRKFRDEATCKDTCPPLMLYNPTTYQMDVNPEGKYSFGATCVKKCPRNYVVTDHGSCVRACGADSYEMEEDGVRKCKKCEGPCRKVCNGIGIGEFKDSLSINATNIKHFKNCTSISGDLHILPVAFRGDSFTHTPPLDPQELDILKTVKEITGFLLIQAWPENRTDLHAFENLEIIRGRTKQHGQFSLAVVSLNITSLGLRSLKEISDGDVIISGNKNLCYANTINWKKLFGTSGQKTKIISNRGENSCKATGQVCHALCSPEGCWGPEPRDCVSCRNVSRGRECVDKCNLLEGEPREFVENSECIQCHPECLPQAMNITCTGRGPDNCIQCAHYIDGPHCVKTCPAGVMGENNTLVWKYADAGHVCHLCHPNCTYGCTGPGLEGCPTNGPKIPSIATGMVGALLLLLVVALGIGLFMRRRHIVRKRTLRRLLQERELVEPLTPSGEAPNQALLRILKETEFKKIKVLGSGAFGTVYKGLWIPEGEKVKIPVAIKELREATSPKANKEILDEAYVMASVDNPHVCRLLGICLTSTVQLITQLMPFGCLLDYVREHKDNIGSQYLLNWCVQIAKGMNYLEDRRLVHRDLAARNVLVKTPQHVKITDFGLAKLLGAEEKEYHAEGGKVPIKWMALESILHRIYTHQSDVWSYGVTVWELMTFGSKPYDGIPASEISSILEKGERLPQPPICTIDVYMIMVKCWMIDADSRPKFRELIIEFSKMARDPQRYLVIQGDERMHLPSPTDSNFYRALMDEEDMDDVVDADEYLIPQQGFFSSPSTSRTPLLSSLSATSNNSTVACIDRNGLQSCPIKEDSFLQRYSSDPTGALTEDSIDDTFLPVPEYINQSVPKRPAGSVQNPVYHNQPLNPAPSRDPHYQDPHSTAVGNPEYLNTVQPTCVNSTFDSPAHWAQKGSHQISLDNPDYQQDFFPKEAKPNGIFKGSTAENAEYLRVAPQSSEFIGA

Q: Which IC50 (EGFR [1]) does the source give for `COc1cc(C=C(C#N)C#N)cc(O)c1O` here?
A: The IC50 was 20 µM.

Q: `N#C/C(=C\c1ccc(O)c(O)c1)C(=O)O` was tested. Which IC50 (EGFR [1]) did it give?
A: The IC50 was 400 µM.

Q: `O=C(O)/C=C/c1cc(O)ccc1O` was tested. Which IC50 (EGFR [2]) did it give?
A: The IC50 was 4.4 µM.

Q: How did the IC50 (EGFR [1]) turn out when `N#C/C(=C\c1ccc(O)c(O)c1)C(N)=O` was run?
A: The IC50 was 4 µM.

Q: Which IC50 (EGFR [1]) does the source give for `N#CC(C#N)=C(N)/C(C#N)=C/c1ccc(O)c(O)c1` here?
A: The IC50 was 1.8 µM.

Q: What does the source list for `N#CC(C#N)=Cc1cc(O)c(O)c(O)c1`?
A: Ki (EGFR [2]): 1 µM; IC50 (EGFR [1]): 15 µM

Q: Which Ki (EGFR [2]) does the source give for `N#C/C(=C\c1ccc([N+](=O)[O-])cc1)C(=O)O` here?
A: Its Ki is 1300 µM.

Q: For `N#CC(C#N)=C(O)c1cc(O)c(O)c(O)c1`, which IC50 (EGFR [1]) is on record?
A: The IC50 was 35 µM.

Q: How did the Ki (EGFR [2]) turn out when `N#CC(C#N)=Cc1cc(O)cc(O)c1` was run?
A: Its Ki is 10 µM.

Q: And the IC50 (EGFR [1])?
A: The IC50 was 160 µM.
